We go through 11 molecules from ChEMBL document CHEMBL1201862, “PubChem BioAssay data set” (2004).

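Step 1: Grow cells in 96-well plates. Step 2: Expose to compound for 48 hours at 5 concentrations. Step 3: Interpolate endpoints linearly; if unreached, use highest concentration. GI50: concentration for 50% inhibition of growth.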 Activity calls are given as the source filed them. No stated cut-off is given here; in the data, active = GI50 up to about 1.1 µM and inactive = higher.

Among the test systems are MCF7; Malme-3M; A549; SNB-19; COLO 205; MDA-N; EKVX; K562; SN12C; HOP-62; HCT-15; ACHN; SR; UACC-257; OVCAR-5; SW-620; MDA-MB-231; DU-145; HL-60; MDA-MB-435.
What all share (test): NCI tumour cell line growth inhibition, 48 h

Regarding `CC(C)(C)OCC1NC(=O)[C@@H]2Cc3c([nH]c4ccccc34)C(c3ccccc3)N2C1=O` (stereo partly drawn), the GI50 in the assay with MCF7, with Malme-3M, in the assay with A549, with SNB-19, in the assay with COLO 205 and with MDA-N was > 50 µM (inactive) throughout. Further, the GI50 with EKVX is > 50 µM (inactive); in the assay with K562, > 30.1 µM (inactive); with SN12C, > 50 µM (inactive); in the assay with HOP-62, > 50 µM (inactive); in the assay with HCT-15, above 50 µM; in the assay on ACHN, > 50 µM (inactive). For the same molecule, the GI50 in the assay with SR is > 22.4 µM (inactive); with UACC-257 it was > 50 µM (inactive); with OVCAR-5 it was > 50 µM (inactive); with SW-620, > 50 µM (inactive); in the assay with MDA-MB-231, > 50 µM (inactive); in the assay with DU-145, > 50 µM (inactive). Besides, the GI50 with HL-60 was > 26.2 µM (inactive); with MDA-MB-435 it was > 50 µM (inactive).

For the molecule `Cc1nc(C)c(N2CCN(C(=O)O)CC2)c(O)n1`, the GI50 in the assay on MCF7, in the assay with Malme-3M, with A549, with SNB-19, in the assay on COLO 205 and in the assay on MDA-N was > 100 µM (inactive) each time. Besides, the GI50 in the assay on EKVX is > 100 µM (inactive); in the assay with K562, > 100 µM (inactive); with SN12C, > 100 µM (inactive); in the assay on HOP-62, > 100 µM (inactive); in the assay on HCT-15, above 100 µM; in the assay with ACHN, > 100 µM (inactive). In addition, the GI50 in the assay on SR, in the assay on UACC-257, in the assay on SW-620, in the assay with MDA-MB-231, with DU-145 and with HL-60 was > 100 µM (inactive) each time. For the same molecule, the GI50 in the assay on MDA-MB-435 is > 100 µM (inactive).

As for `Cc1ccc2c(c1)[nH]c(=S)n2/C=C1\C(=O)Oc2ccccc2C1=O`, the GI50 was > 100 µM (inactive) with MCF7; 34.6 µM (inactive) in the assay with Malme-3M; 77.4 µM (inactive) in the assay on A549; 86.5 µM (inactive) in the assay on SNB-19; 99.3 µM (inactive) with COLO 205; 90.6 µM (inactive) in the assay with MDA-N. Further, the GI50 in the assay with K562 is 52.2 µM (inactive); with SN12C, 59.4 µM (inactive); in the assay on HOP-62 it was 51.3 µM (inactive); with HCT-15, 44.9 µM; in the assay on ACHN, 36 µM (inactive); in the assay on SR, 71.6 µM (inactive). For the same molecule, the GI50 with UACC-257 is 82 µM (inactive); in the assay with OVCAR-5, > 100 µM (inactive); in the assay with SW-620, 52.6 µM (inactive); in the assay on MDA-MB-231, 50.5 µM (inactive); in the assay with DU-145 it was 41.3 µM (inactive); in the assay with HL-60 it was 55 µM (inactive). Also, in the assay on MDA-MB-435, the GI50 is 61.8 µM (inactive).

In the case of `Nc1cc([N+](=O)[O-])ccc1C(=O)N1CCC[C@H]1CO`, the GI50 in the assay on MCF7, in the assay on Malme-3M, in the assay on A549, in the assay on SNB-19, in the assay on COLO 205 and with MDA-N was > 100 µM (inactive) each time. In addition, the GI50 in the assay with EKVX is > 100 µM (inactive); with K562, > 100 µM (inactive); with SN12C it was > 100 µM (inactive); with HCT-15, above 100 µM; in the assay with ACHN, > 100 µM (inactive); in the assay with SR, > 100 µM (inactive). Moreover, the GI50 in the assay on UACC-257, in the assay with SW-620, with MDA-MB-231, with DU-145, in the assay with HL-60 and in the assay on MDA-MB-435 was > 100 µM (inactive) throughout.

Consider `Cc1ccc(-c2cc(-c3ccccc3)nc(N)n2)c(O)c1`, for which the GI50 was 58.1 µM (inactive) in the assay on MCF7; > 100 µM (inactive) in the assay on Malme-3M; > 90.4 µM (inactive) in the assay on A549; 32.4 µM (inactive) in the assay with SNB-19; > 100 µM (inactive) in the assay on COLO 205; 4.78 µM (inactive) with MDA-N. For the same molecule, the GI50 with K562 was 2.09 µM (inactive); with SN12C, > 100 µM (inactive); in the assay with HOP-62, 27.6 µM (inactive); in the assay with HCT-15 it was above 22.9 µM; in the assay on ACHN, > 100 µM (inactive); in the assay on SR, 0.227 µM (active). Moreover, the GI50 was > 100 µM (inactive) with UACC-257; > 100 µM (inactive) in the assay with OVCAR-5; > 22.7 µM (inactive) in the assay on SW-620; > 100 µM (inactive) with MDA-MB-231; > 79.4 µM (inactive) in the assay with DU-145; 2.22 µM (inactive) in the assay on HL-60. The GI50 with MDA-MB-435 was 2.86 µM (inactive).

With `N#C[BH2-][n+]1ccc(C(=O)NNCc2ccccc2)cc1`, the GI50 with MCF7, in the assay with Malme-3M, with A549, with SNB-19, in the assay with COLO 205 and in the assay on MDA-N was > 100 µM (inactive) each time. Further, the GI50 was > 100 µM (inactive) in the assay with EKVX; > 100 µM (inactive) in the assay on K562; > 100 µM (inactive) in the assay with SN12C; above 100 µM with HCT-15; > 100 µM (inactive) in the assay with ACHN; > 100 µM (inactive) in the assay on SR. In addition, the GI50 in the assay with UACC-257, with OVCAR-5, in the assay with SW-620, in the assay with MDA-MB-231, in the assay with DU-145 and with HL-60 was > 100 µM (inactive) throughout. For the same molecule, the GI50 in the assay on MDA-MB-435 is > 100 µM (inactive).

`Cc1c(C)c2c(c(N)c1C#N)C(=O)N(Nc1ccccc1)C2=O`: the GI50 with MCF7 is 60.1 µM (inactive); in the assay with Malme-3M, 51.5 µM (inactive); in the assay with A549, 74.3 µM (inactive); in the assay on SNB-19 it was 39.1 µM (inactive); with COLO 205, > 100 µM (inactive); with MDA-N, > 100 µM (inactive). In addition, the GI50 is 43.9 µM (inactive) in the assay on EKVX; > 100 µM (inactive) with K562; > 100 µM (inactive) in the assay with SN12C; above 100 µM in the assay on HCT-15; 60.1 µM (inactive) with ACHN; 66.1 µM (inactive) in the assay with SR. For the same molecule, the GI50 with UACC-257 is 81.8 µM (inactive); in the assay on OVCAR-5, > 100 µM (inactive); in the assay with SW-620 it was > 100 µM (inactive); in the assay on MDA-MB-231 it was 31.9 µM (inactive); with DU-145, > 100 µM (inactive); in the assay on HL-60, 26.7 µM (inactive). In addition, in the assay on MDA-MB-435, the GI50 is 72.8 µM (inactive).

For `CCC(NC1=NCCO1)c1cccs1` (stereo not drawn), the GI50 in the assay on MCF7 is 15.6 µM (inactive); in the assay on Malme-3M, 13 µM (inactive); in the assay with A549 it was 14.1 µM (inactive); in the assay on SNB-19 it was 16.3 µM (inactive); with COLO 205, 17.3 µM (inactive); in the assay with MDA-N, 14.6 µM (inactive). The GI50 in the assay with EKVX was 16.5 µM (inactive); in the assay with K562 it was 5.55 µM (inactive); in the assay with HCT-15 it was 15.6 µM; in the assay on ACHN it was 15.9 µM (inactive); in the assay with SR, 25.8 µM (inactive); with UACC-257, 18 µM (inactive). In addition, the GI50 was 17 µM (inactive) with OVCAR-5; 24.3 µM (inactive) in the assay with SW-620; 20.7 µM (inactive) in the assay on MDA-MB-231; 13.7 µM (inactive) with DU-145; 18.6 µM (inactive) in the assay on HL-60; 14.5 µM (inactive) with MDA-MB-435.

Take `Cc1cccc(/C=N/NC(=S)NC(C)(C)C)n1`: the GI50 with MCF7 was 18.5 µM (inactive); in the assay on Malme-3M, > 100 µM (inactive); in the assay with A549 it was > 100 µM (inactive); in the assay with SNB-19, > 100 µM (inactive); in the assay with COLO 205, 6.14 µM (inactive); in the assay with MDA-N, > 100 µM (inactive). The GI50 is 5.15 µM (inactive) in the assay on K562; > 100 µM (inactive) in the assay on SN12C; 98.9 µM (inactive) with HOP-62; 24.8 µM in the assay with HCT-15; 35.6 µM (inactive) in the assay on ACHN; 23.7 µM (inactive) in the assay on SR. For the same molecule, the GI50 is > 100 µM (inactive) with UACC-257; 95.1 µM (inactive) in the assay on OVCAR-5; 16 µM (inactive) in the assay with SW-620; 34.6 µM (inactive) in the assay with MDA-MB-231; 66.8 µM (inactive) with DU-145; 85.5 µM (inactive) in the assay with HL-60. Besides, in the assay with MDA-MB-435, the GI50 was > 100 µM (inactive).

On to `NCCSC(c1ccccc1)c1ccccc1`, for which the GI50 with MCF7 was 19.3 µM (inactive); in the assay with Malme-3M, 19.5 µM (inactive); in the assay with A549, 39.3 µM (inactive); with SNB-19 it was 51.9 µM (inactive); in the assay with COLO 205, 23.7 µM (inactive); in the assay with MDA-N, 18.7 µM (inactive). The GI50 is 30.7 µM (inactive) in the assay with EKVX; 35.5 µM (inactive) in the assay on SN12C; 17.5 µM (inactive) in the assay with HOP-62; 33.2 µM in the assay on HCT-15; 31.8 µM (inactive) with ACHN; 17.6 µM (inactive) in the assay on SR. The GI50 with UACC-257 is 16.3 µM (inactive); in the assay with OVCAR-5, 17.2 µM (inactive); in the assay with SW-620, 18.5 µM (inactive); with MDA-MB-231, 18.6 µM (inactive); in the assay on DU-145, 29.2 µM (inactive); in the assay with HL-60, 0.314 µM (active). In addition, the GI50 in the assay with MDA-MB-435 was 19.1 µM (inactive).

For `Cc1c(/C=N/NC(=S)Nc2ccccc2Cl)c(=O)n(-c2ccccc2)n1C`, the GI50 in the assay on MCF7 was 46.5 µM (inactive); with Malme-3M, 32.7 µM (inactive); in the assay with A549 it was 27.6 µM (inactive); in the assay on SNB-19, 32.6 µM (inactive); in the assay on COLO 205, 38.7 µM (inactive); with MDA-N it was 87.3 µM (inactive). The GI50 is 45.5 µM (inactive) with EKVX; 27.9 µM (inactive) with K562; 44.2 µM (inactive) in the assay with SN12C; 22.7 µM (inactive) in the assay on HOP-62; 8.53 µM in the assay on HCT-15; 43.8 µM (inactive) with SR. In addition, the GI50 was 34.2 µM (inactive) in the assay with UACC-257; > 100 µM (inactive) in the assay with OVCAR-5; 39.9 µM (inactive) with SW-620; 14.9 µM (inactive) in the assay on MDA-MB-231; 60.4 µM (inactive) with DU-145; 22.4 µM (inactive) in the assay on HL-60. Besides, the GI50 in the assay with MDA-MB-435 is > 100 µM (inactive).
